The source of these data is ChEMBL document CHEMBL1136415, “3-Acylamino-azetidin-2-one as a novel class of cysteine proteases inhibitors” (Bioorg Med Chem Lett, 2003).

One test addresses T1, Cathepsin K (Homo sapiens, UniProt P43235).
T1 sequence (P43235 whole entry): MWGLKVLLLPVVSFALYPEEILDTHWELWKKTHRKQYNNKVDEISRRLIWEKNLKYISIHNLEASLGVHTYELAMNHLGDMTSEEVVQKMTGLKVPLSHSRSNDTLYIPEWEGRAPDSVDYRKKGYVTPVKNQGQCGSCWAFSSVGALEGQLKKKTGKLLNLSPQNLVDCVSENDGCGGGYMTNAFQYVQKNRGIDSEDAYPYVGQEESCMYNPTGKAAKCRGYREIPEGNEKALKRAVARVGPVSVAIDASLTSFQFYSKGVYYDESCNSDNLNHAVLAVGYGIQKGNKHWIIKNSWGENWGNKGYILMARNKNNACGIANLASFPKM
Description: Inhibition of recombinant human Cathepsin K.

In the next test the target is Cathepsin S (Homo sapiens, UniProt P25774). The experiment in a line: Inhibition of recombinant human cathepsin S.
The next test deals with Cathepsin B (Rattus norvegicus, UniProt P00787). The experiment in a line: Inhibition of recombinant rat Cathepsin B.
Another test has as its target Procathepsin L (Homo sapiens, UniProt P07711). The experiment in a line: Inhibition of recombinant human Cathepsin L.
For a further test, the target named is T2, Neutrophil elastase (Homo sapiens, UniProt P08246).
T2 sequence (P08246 whole entry): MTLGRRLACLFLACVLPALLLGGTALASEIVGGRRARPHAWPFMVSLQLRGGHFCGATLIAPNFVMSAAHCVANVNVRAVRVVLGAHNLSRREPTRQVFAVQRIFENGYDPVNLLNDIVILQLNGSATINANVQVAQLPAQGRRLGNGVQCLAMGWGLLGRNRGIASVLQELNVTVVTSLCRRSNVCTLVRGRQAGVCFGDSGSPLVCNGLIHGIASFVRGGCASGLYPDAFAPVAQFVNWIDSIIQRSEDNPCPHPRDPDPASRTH
The experiment in a line: Inhibition of human leukocyte elastase(HLE).

As a reminder, the IC50 is the concentration that gives 50% inhibition.

Chain of Cathepsin B (P00787 whole entry): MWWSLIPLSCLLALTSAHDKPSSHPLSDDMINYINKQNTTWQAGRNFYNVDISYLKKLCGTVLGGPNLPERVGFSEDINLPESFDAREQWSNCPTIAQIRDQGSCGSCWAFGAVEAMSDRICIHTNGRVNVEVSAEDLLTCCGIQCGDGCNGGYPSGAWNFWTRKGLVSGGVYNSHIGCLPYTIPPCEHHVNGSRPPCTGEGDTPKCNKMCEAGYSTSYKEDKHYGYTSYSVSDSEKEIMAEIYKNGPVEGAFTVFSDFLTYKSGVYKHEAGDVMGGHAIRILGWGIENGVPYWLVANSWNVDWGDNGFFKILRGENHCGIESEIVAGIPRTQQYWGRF
Chain of Cathepsin S (P25774 whole entry): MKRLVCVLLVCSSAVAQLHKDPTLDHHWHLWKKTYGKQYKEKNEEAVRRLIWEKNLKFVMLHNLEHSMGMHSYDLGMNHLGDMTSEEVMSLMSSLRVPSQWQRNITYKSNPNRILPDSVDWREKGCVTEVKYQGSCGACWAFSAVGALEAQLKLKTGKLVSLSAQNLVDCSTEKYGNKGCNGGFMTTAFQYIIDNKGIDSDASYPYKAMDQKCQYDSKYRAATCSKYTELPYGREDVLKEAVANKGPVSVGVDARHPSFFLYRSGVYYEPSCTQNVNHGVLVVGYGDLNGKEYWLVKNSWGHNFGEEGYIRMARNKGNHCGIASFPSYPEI
Chain of Procathepsin L (P07711 whole entry): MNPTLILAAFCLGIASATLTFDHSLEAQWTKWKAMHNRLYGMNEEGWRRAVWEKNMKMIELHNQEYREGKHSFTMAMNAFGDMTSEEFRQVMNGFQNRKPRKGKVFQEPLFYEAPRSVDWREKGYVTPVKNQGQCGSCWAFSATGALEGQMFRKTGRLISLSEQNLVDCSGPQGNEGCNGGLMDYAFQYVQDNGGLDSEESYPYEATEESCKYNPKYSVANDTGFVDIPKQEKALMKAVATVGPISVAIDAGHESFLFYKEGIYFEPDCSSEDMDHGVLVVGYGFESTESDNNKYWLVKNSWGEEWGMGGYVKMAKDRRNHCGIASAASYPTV

Turning to `CC(C)(C)O[C@@H]1NC(=O)[C@H]1NC(=O)[C@H](Cc1ccccc1)NC(=O)OCc1ccccc1`, the IC50 at Cathepsin K is 2500 nM; at Cathepsin S, greater than 2500 nM; at Cathepsin B it was 11.4 µM; on Procathepsin L, 780 nM; on Neutrophil elastase it was greater than 50 µM.

With `O=C(N[C@@H](Cc1ccccc1)C(=O)N[C@@H]1C(=O)N[C@H]1Sc1ccccc1)OCc1ccccc1`, the IC50 is 8.4 nM on Cathepsin K; 330 nM on Cathepsin S; 10.5 µM on Cathepsin B; 0.1 nM on Procathepsin L; greater than 50 µM against Neutrophil elastase.

For `CCCCO[C@@H]1NC(=O)[C@H]1NC(=O)[C@H](Cc1ccccc1)NC(=O)OCc1ccccc1`, the IC50 was 100 nM on Cathepsin K; 355 nM at Cathepsin S; 7.01 µM at Cathepsin B; 163 nM at Procathepsin L; greater than 50 µM against Neutrophil elastase.

With `CC(=O)O[C@@H]1NC(=O)[C@H]1NC(=O)[C@H](Cc1ccccc1)NC(=O)OCc1ccccc1`, the IC50 on Cathepsin K was 100 nM; at Cathepsin S it was 207 nM; at Cathepsin B it was 0.47 µM; on Procathepsin L, 42 nM; against Neutrophil elastase it was greater than 10 µM.

As for `O=C(N[C@@H](Cc1ccccc1)C(=O)N[C@H]1CNC1=O)OCc1ccccc1`, the IC50 at Cathepsin B is 2.7 µM; on Neutrophil elastase, greater than 50 µM.

`O=C(N[C@@H](Cc1ccccc1)C(=O)N[C@@H]1C(=O)N[C@@H]1Sc1ccccc1)OCc1ccccc1`: the IC50 was 72 nM at Cathepsin K; 2500 nM at Cathepsin S; 39.7 µM at Cathepsin B; 15 nM at Procathepsin L; greater than 50 µM on Neutrophil elastase.

Turning to `O=C(N[C@@H](Cc1ccccc1)C(=O)N[C@@H]1C(=O)N[C@@H]1Oc1ccccc1)OCc1ccccc1`, the values for the IC50 on Cathepsin K, on Cathepsin B and at Neutrophil elastase were 16 nM, 0.43 µM and greater than 30 µM, respectively.

On to `O=C(N[C@@H](Cc1ccccc1)C(=O)N[C@@H]1C(=O)N[C@H]1OCc1ccccc1)OCc1ccccc1`, for which the 50% inhibitory concentration (IC50) at Cathepsin K is 2500 nM; at Cathepsin S, greater than 2500 nM; at Cathepsin B, 32.6 µM; on Procathepsin L, 3960 nM; against Neutrophil elastase, greater than 50 µM.

For `O=C(N[C@@H](Cc1ccccc1)C(=O)N[C@@H]1C(=O)N[C@H]1OC(=O)c1ccccc1)OCc1ccccc1`, the IC50 on Cathepsin K is 100 nM; on Cathepsin S it was 20 nM; at Cathepsin B, 27.5 µM; on Procathepsin L, 166 nM; on Neutrophil elastase, greater than 50 µM.

With `O=C(N[C@@H](Cc1ccccc1)C(=O)N[C@@H]1CNC1=O)OCc1ccccc1`, the IC50 at Cathepsin K is greater than 5000 nM; at Cathepsin S, greater than 5000 nM; on Cathepsin B, 13.6 µM; at Procathepsin L, 37400 nM; against Neutrophil elastase, greater than 50 µM.

In the case of `O=C(N[C@@H](Cc1ccccc1)C(=O)N[C@@H]1C(=O)N[C@H]1S(=O)(=O)c1ccccc1)OCc1ccccc1`, the half-inhibitory concentration (IC50) at Cathepsin K is 6.5 nM; on Cathepsin S, 48 nM; at Procathepsin L it was 0.1 nM; on Neutrophil elastase, greater than 50 µM.

For the molecule `O=C(CCc1ccccc1)O[C@@H]1NC(=O)[C@H]1NC(=O)[C@H](Cc1ccccc1)NC(=O)OCc1ccccc1`, the IC50 is 38 nM on Cathepsin K; 41 nM at Cathepsin S; 9.71 µM at Cathepsin B; 47 nM on Procathepsin L; greater than 50 µM against Neutrophil elastase.

With `CC(C)CO[C@@H]1NC(=O)[C@H]1NC(=O)[C@H](Cc1ccccc1)NC(=O)OCc1ccccc1`, the IC50 on Cathepsin K is 2300 nM; on Cathepsin S, greater than 2500 nM; at Cathepsin B, 6.46 µM; at Procathepsin L it was 91 nM; on Neutrophil elastase it was greater than 50 µM.

As to `O=C(N[C@@H](Cc1ccccc1)C(=O)N[C@@H]1C(=O)N[C@H]1Oc1ccccc1)OCc1ccccc1`, the IC50 on Cathepsin K is 100 nM; on Cathepsin S, 330 nM; on Cathepsin B it was 10.9 µM; at Neutrophil elastase, greater than 30 µM.
